Experimental data as given in article PMC6796870, “A two-step lineage reprogramming strategy to generate functionally competent human hepatocytes from fibroblasts” (Cell Research, 2019).
Counter-ions that a name gives are not always drawn. Like-named read-outs stand apart in the source and are kept apart here.

What was measured:
hiHeps [1] = tested on: hiHeps
hiHeps [2] = assay: Toxicity assay (TC50, 24 h, minimum of four viability parameters) in hiHeps; settings: concentration giving 50% reduction of cell viability, values rounded for ease of use
HBV = HBV infection of hiHeps, antiviral drug response; format: cell-based, hepatitis B virus; settings: HBV-infected hiHeps; for HBV-DNA / HBV-RNA / HBV-proteins: 36 days, LAM 1 μM, ETV 0.5 μM during and after infection
hiHeps [3] = settings: human
[4] = Table S9; ref 1,2 (Chen, M. et al. 2011); cited from earlier work
IFN-stimulated genes = assay: Expression of IFN-stimulated genes in hiHeps; format: cell-based, human; settings: IFN-α treatment
hiHeps [5] = format: cell-based, human
Method: The correlation between groups was evaluated by the Pearson correlation coefficient (r). b Time- and dose-dependent chronic toxicity of troglitazone in hiHeps. Mitochondrial activities were normalized to DMSO-treated cultures at corresponding day. n = 6. c Fluorescence evaluation of the pathological effects of DILI in hiHeps. Steatosis (up) and phospholipidosis (down) were evaluated in hiHeps after exposure to steatosis-causing compounds and phospholipidosis-causing compounds, respectively. Rifampin (non-steatosis/phospholipidosis-causing drug) or DMSO treatment were set as controls. For all compounds, images were captured at the concentration of 80% TC50. For all measurements, ‘n’ represents the number of biological replicates. The scale bars represent 50 μm. Data are presented as mean ± SEM

Compound: CC(C)C(=O)Nc1ccc([N+](=O)[O-])c(C(F)(F)F)c1 [flutamide]
- Toxicity after treatment with CYP3A4 inducer (rifampin) (hiHeps [1]): increased
- DDI effects on toxicity (rifampin, rifampin + ketoconazole) (HepG2 cells): not detected

Compound: CN(C)CCCN1c2ccccc2Sc2ccc(Cl)cc21 [chlorpromazine]
- TC50 (hiHeps [2]): ≈ 25 μM

Compound: C=C1[C@H](CO)[C@@H](O)C[C@@H]1n1cnc2c(=O)[nH]c(N)nc21 [entecavir]
- HBV-DNA (HBV): greatly inhibited
- HBV-RNA (HBV): moderate effect
- HBV-proteins (HBV): moderate effect

Compound: CN(C)[C@@H]1C(O)=C(C(N)=O)C(=O)[C@@]2(O)C(O)=C3C(=O)c4c(O)cccc4[C@@](C)(O)[C@H]3C[C@@H]12 [tetracycline hydrochloride]
- TC50 (hiHeps [3]): ~400 µM

Compound: CC(=O)O[C@@]12CO[C@@H]1C[C@H](O)[C@@]1(C)C(=O)[C@H](O)C3=C(C)[C@@H](OC(=O)[C@H](O)[C@@H](NC(=O)OC(C)(C)C)c4ccccc4)C[C@@](O)([C@@H](OC(=O)c4ccccc4)[C@H]21)C3(C)C [Docetaxel]
- Label [4]: DILI concern by FDA

Compound: interferon-alpha
- All major HBV markers (HBV-DNA, HBV-RNA, HBV-proteins) (HBV; 1000 U/mL after infection): inhibitory effect
- Expression of IFN-stimulated genes (IFN-stimulated genes): upregulation

Compound: CCCCc1oc2ccccc2c1C(=O)c1cc(I)c(OCCN(CC)CC)c(I)c1 [amiodarone]
- TC50 (hiHeps [2]): ~30 µM

Compound: Nc1ccn([C@@H]2CS[C@H](CO)O2)c(=O)n1 [lamivudine]
- HBV-DNA (HBV): greatly inhibited
- HBV-RNA (HBV): moderate effect
- HBV-proteins (HBV): moderate effect

Compound: Cc1c(C)c2c(c(C)c1O)CCC(C)(COc1ccc(CC3SC(=O)NC3=O)cc1)O2 (centres unmarked) [troglitazone]
- Chronic toxicity (hiHeps [5]): extensive cell death

Compound: aflatoxin B1
- Toxicity after rifampin plus CYP3A4 inhibitor (ketoconazole) (hiHeps [1]): rescued
- Toxicity after treatment with CYP3A4 inducer (rifampin) (hiHeps [1]): increased
- DDI effects on toxicity (rifampin, rifampin + ketoconazole) (HepG2 cells): not detected

Compound: CCN(CC)CCNC(=O)c1c(C)[nH]c(/C=C2\C(=O)Nc3ccc(F)cc32)c1C [Sunitinib]
- Label [4]: DILI concern by FDA

Compound: CO[C@H]1/C=C/O[C@@]2(C)Oc3c(C)c(O)c4c(O)c(c(/C=N/N5CCN(C)CC5)c(O)c4c3C2=O)NC(=O)/C(C)=C\C=C\[C@H](C)[C@H](O)[C@@H](C)[C@@H](O)[C@@H](C)[C@H](OC(C)=O)[C@@H]1C [rifampin]
- TC50 (hiHeps [2]): ~100 µM
